Here are results for 13 compounds from US20250171495A1, “MUTLI-TARGETED SERINE PROTEASE INHIBITORS FOR TREATMENT OF CANCER AND VIRAL INFECTION” (Washington University, priority 2023, published 2025).

What all share (type): biochemical
One assay addresses T1, HGFA (Homo sapiens, UniProt Q04756).
T1 construct: purchased R&D Systems 1514-SE-010
T1 sequence (Q04756 408-655 limits assumed): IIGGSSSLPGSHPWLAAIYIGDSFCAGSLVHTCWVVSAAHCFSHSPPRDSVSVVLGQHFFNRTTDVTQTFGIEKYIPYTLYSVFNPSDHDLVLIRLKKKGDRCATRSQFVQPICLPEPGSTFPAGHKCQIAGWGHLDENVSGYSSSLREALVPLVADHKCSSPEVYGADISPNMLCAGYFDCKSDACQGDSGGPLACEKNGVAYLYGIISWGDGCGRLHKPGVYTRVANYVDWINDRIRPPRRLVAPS
T1 sequence (Q04756 373-407 partner limits assumed): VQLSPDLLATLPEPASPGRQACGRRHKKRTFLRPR
In words: Fluorogenic kinetic enzyme inhibitor assay, HGFA.

For a further assay, the target named is T2, hepsin (Homo sapiens, UniProt P05981).
T2 construct: purchased R&D Systems 4776-SE-010
In words: Fluorogenic kinetic enzyme inhibitor assay, hepsin.

The next assay has as its target T3, matriptase (Homo sapiens, UniProt Q9Y5Y6).
T3 construct: purchased R&D Systems 3946-SEB-010
T3 sequence (Q9Y5Y6 615-855 limits assumed): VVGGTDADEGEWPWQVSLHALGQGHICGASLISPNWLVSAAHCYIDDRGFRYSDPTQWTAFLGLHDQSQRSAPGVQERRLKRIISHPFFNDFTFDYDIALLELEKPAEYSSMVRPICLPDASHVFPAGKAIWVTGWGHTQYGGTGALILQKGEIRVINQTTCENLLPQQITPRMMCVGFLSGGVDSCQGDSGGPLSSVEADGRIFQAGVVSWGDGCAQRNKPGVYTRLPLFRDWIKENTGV
In words: Fluorogenic kinetic enzyme inhibitor assay, matriptase.

Another assay deals with TMPRSS2 (Homo sapiens, UniProt O15393). In words: Fluorogenic kinetic enzyme inhibitor assay, TMPRSS2. The arrangement: purchased Cusabio Technology CSB-YP023924HU. Conditions: read-out: TMPRSS2 IC50.

Read-outs that look alike come from different tables or passages of the source.

T2 sequence (P05981 163-417 limits assumed): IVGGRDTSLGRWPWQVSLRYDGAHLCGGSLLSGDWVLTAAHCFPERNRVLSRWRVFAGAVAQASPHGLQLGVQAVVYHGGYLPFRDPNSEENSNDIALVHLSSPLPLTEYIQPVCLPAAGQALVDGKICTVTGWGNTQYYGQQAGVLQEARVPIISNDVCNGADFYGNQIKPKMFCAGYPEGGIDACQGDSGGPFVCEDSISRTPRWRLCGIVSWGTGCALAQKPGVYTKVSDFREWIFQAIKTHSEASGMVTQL
T2 sequence (P05981 1-162 partner limits assumed): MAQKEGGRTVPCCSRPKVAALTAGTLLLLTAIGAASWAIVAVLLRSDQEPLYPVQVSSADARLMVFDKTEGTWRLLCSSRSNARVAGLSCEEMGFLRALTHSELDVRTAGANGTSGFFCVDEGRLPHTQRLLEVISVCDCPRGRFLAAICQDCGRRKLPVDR
Sequence of TMPRSS2 (O15393 106-492 limits assumed): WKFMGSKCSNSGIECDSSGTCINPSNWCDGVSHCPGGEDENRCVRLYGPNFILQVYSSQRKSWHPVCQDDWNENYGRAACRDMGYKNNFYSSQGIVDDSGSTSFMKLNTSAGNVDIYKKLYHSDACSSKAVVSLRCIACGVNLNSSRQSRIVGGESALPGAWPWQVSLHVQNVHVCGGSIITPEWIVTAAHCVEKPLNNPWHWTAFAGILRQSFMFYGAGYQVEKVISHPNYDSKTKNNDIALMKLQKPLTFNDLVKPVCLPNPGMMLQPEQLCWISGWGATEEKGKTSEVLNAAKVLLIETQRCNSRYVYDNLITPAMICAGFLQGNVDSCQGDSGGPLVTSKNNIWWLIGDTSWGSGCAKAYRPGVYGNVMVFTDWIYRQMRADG

For `CC(=O)N[C@@H](CO)C(=O)NCc1cccc(CC(=O)N[C@@H](CC(C)C)C(=O)N[C@H](CCCNC(=N)N)C(=O)c2nc3ccccc3s2)c1` [MM1132-1, N-[(R)-1-[(1,3-benzothiazol-2-yl)carbonyl]-4-guanidinobutyl](S)-2-{[(m-{[(S)-2-acetylamino-3-hydroxypropionylamino]methyl}phenyl)methyl]carbonylamino}-4-methylvaleramide], the results for the IC50 at HGFA (read-out: HGFA IC50), on hepsin (read-out: Hepsin IC50) and at matriptase (read-out: Matriptase IC50) were 3250 nM, 1.91 nM and 419 nM, respectively.
Turning to `CCC(C)[C@H](NC(C)=O)C(=O)N[C@@H](CCC(N)=O)C(=O)N[C@H](C(=O)N[C@@H](CCCNC(=N)N)C(=O)c1nc2ccccc2s1)C(C)C` (stereo partly drawn) [MM3180-2, N-[(S)-2-methyl-1-[N-(S)-1-[(1,3-benzothiazol-2-yl)carbonyl]-4-guanidinobutylcarbamoyl]propyl](S)-2-[(2S)-2-acetylamino-3-methylvalerylamino]glutaramide], the IC50 – broadly, the point on the concentration scale where inhibition reaches its midpoint – at HGFA (read-out: HGFA IC50) came out at 799 nM; on TMPRSS2 it was 0.031 nM; at hepsin (read-out: Hepsin IC50) it was 0.106 nM; against matriptase, 0.761 nM.
As to `CC(=O)N1CCC[C@H]1C(=O)N[C@@H](CO)C(=O)N[C@@H](CCCCN)C(=O)N[C@@H](CCCNC(=N)N)C(=O)c1nc2ccccc2s1` [MM3194A, N-[(S)-2-hydroxy-1-[N-(S)-5-amino-1-[N-(S)-1-[(1,3-benzothiazol-2-yl)carbonyl]-4-guanidinobutylcarbamoyl]pentylcarbamoy1]ethyl]-(S)-1-acetyl-2-pyrrolidinecarboxamide], the IC50 is more than 20000 nM on HGFA, 0.286 nM on TMPRSS2, 2.43 nM on hepsin and 0.293 nM against matriptase.
On to `CC(=O)N1CCC[C@H]1C(=O)N[C@@H](CO)C(=O)N[C@@H](CCCCN)C(=O)N[C@H](CCCNC(=N)N)C(=O)c1nc2ccccc2s1` [MM3194C, N-[(S)-2-hydroxy-1-[N-(S)-5-amino-1-[N-(R)-1-[(1,3-benzothiazol-2-yl)carbonyl]-4-guanidinobutylcarbamoyl]pentylcarbamoy1]ethyl]-(S)-1-acetyl-2-pyrrolidinecarboxamide], for which the IC50 on HGFA (read-out: HGFA IC50) is more than 20000 nM; on hepsin (read-out: Hepsin IC50) it was 24.9 nM; on matriptase it was 5.72 nM.
Consider `CCC(C)[C@H](NC(C)=O)C(=O)N[C@@H](CO)C(=O)N[C@@H](Cc1ccccc1)C(=O)N[C@H](CCCNC(=N)N)C(=O)c1nc2ccccc2s1` (stereo partly drawn) [MM4009-1, N-[(S)-2-hydroxy-1-[N-(S)-1-[N-(R)-1-[(1,3-benzothiazol-2-yl)carbonyl]-4-guanidinobutylcarbamoyl]-2-phenylethylcarbamoyl]ethyl](2S)-2-acetylamino-3-methylvaleramide], for which the IC50 at HGFA (read-out: HGFA IC50) was found to be 1340 nM; on hepsin (read-out: Hepsin IC50) it was 2.08 nM; on matriptase, 18.4 nM.
Consider `CCC(C)[C@H](NC(C)=O)C(=O)N[C@@H](CO)C(=O)N[C@@H](Cc1ccccc1)C(=O)N[C@@H](CCCNC(=N)N)C(=O)c1nc2ccccc2s1` (stereo partly drawn) [MM4009-2, N-[(S)-2-hydroxy-1-[N-(S)-1-[N-(S)-1-[(1,3-benzothiazol-2-yl)carbonyl]-4-guanidinobutylcarbamoyl]-2-phenylethylcarbamoyl]ethyl] (2S)-2-acetylamino-3-methylvaleramide], for which the IC50 turned out to be 126 nM at HGFA (read-out: HGFA IC50), 0.067 nM on TMPRSS2, 1.05 nM on hepsin (read-out: Hepsin IC50) and 2.17 nM against matriptase.
On to `CCC(C)[C@H](NC(C)=O)C(=O)N[C@H](C(=O)N[C@@H](Cc1ccccc1)C(=O)N[C@@H](CCCNC(=N)N)C(=O)c1nc2ccccc2s1)C(C)O` (stereo partly drawn) [MM4028-2, N-[(1S)-2-hydroxy-1-[N-(S)-1-[N-(S)-1-[(1,3-benzothiazol-2-yl)carbonyl]-4-guanidinobutylcarbamoyl]-2-phenylethylcarbamoyl]propyl](2S)-2-acetylamino-3-methylvaleramide], for which the IC50 on HGFA (read-out: HGFA IC50) worked out at 182 nM; on TMPRSS2, 0.064 nM; at hepsin (read-out: Hepsin IC50), 0.863 nM; on matriptase, 4.71 nM.
For `CC(=O)N[C@@H](CO)C(=O)N[C@@H](Cc1cncn1COCc1ccccc1)C(=O)N[C@@H](CC(C)C)C(=O)N[C@H](CCCNC(=N)N)C(=O)c1nc2ccccc2s1` [MM4036-1, N-[(R)-1-[(1,3-benzothiazol-2-yl)carbonyl]-4-guanidinobutyl](S)-2-[(S)-2-[(S)-2-acetylamino-3-hydroxypropionylamino]-3-{1-[(benzyloxy)methyl]-5-imidazolyl}propionylamino]-4-methylvaleramide], the IC50 was 1550 nM at HGFA (read-out: HGFA IC50), 102 nM at TMPRSS2, 1.47 nM at hepsin (read-out: Hepsin IC50) and 139 nM against matriptase.
Turning to `CC(=O)N[C@@H](CO)C(=O)N[C@@H](Cc1cncn1COCc1ccccc1)C(=O)N[C@@H](CC(C)C)C(=O)N[C@@H](CCCNC(=N)N)C(=O)c1nc2ccccc2s1` [MM4036-2, N-[(S)-1-[(1,3-benzothiazol-2-yl)carbonyl]-4-guanidinobutyl](S)-2-[(S)-2-[(S)-2-acetylamino-3-hydroxypropionylamino]-3-{1-[(benzyloxy)methyl]-5-imidazolyl}propionylamino]-4-methylvaleramide], the results for the IC50 at HGFA (read-out: HGFA IC50), at hepsin (read-out: Hepsin IC50) and at matriptase were 1070 nM, 2.81 nM and 77.7 nM, respectively.
As for `CCC(C)[C@H](NC(C)=O)C(=O)N[C@@H](CCC(=O)O)C(=O)N[C@@H](Cc1ccccc1)C(=O)N[C@@H](CCCNC(=N)N)C(=O)c1nc2ccccc2s1` (stereo partly drawn) [MM4037-2, (S)-4-[(2S)-2-acetylamino-3-methylvalerylamino]-4-[N-(S)-1-[N-(S)-1-[(1,3-benzothiazol-2-yl)carbonyl]-4-guanidinobutylcarbamoyl]-2-phenylethylcarbamoyl]butyric acid], the IC50 at HGFA (read-out: HGFA IC50) amounted to 276 nM; at TMPRSS2 it was 0.109 nM; on hepsin (read-out: Hepsin IC50) it was 0.35 nM; against matriptase, 2.42 nM.
On to `CC(=O)N[C@@H](Cc1c[nH]c2ccccc12)C(=O)N[C@@H](Cc1ccccc1)C(=O)N[C@@H](CCCNC(=N)N)C(=O)c1nc2ccc(C(=O)O)cc2s1` [PK-1-103, 2-[(S)-2-[(S)-2-[(S)-2-acetylamino-3-(3-indolyl)propionylamino]-3-phenylpropionylamino]-5-guanidinovaleryl]-1,3-benzothiazole-6-carboxylic acid], for which the IC50 at HGFA (read-out: HGFA IC50) was found to be 235 nM; at TMPRSS2 it was 0.223 nM; on hepsin (read-out: Hepsin IC50) it was 2.08 nM; at matriptase (read-out: Matriptase IC50), 49.1 nM.
The matching figures for `CC(=O)N[C@@H](Cc1c[nH]c2ccccc12)C(=O)N[C@@H](CC(C)C)C(=O)N[C@@H](CCCNC(=N)N)C(=O)c1nc2ccc(C(=O)O)cc2s1` [PK-1-105, 2-[(S)-2-[(S)-2-[(S)-2-acetylamino-3-(3-indolyl)propionylamino]-4-methylvalerylamino]-5-guanidinovaleryl]-1,3-benzothiazole-6-carboxylic acid]: 98.3 nM, 1.45 nM, 0.362 nM and 144 nM.
In the case of `CC(=O)N[C@H]1Cc2ccc(cc2)OCCCC[C@@H](C(=O)N[C@H](CCCNC(=N)N)C(=O)c2nc3ccccc3s2)NC(=O)[C@H](Cc2ccccc2)NC1=O` [VD4111A, N-[(R)-1-[(1,3-benzothiazol-2-yl)carbonyl]-4-guanidinobutyl]-(7S,10S,13S)-13-acetylamino-10-benzyl-9,12-dioxo-2-oxa-8,11-diazabicyclo[13.2.2]nonadeca-1(17),15,18-triene-7-carboxamide], the IC50 is 3280 nM against HGFA, 12.7 nM against hepsin and 330 nM against matriptase.
